Data on one compound can be found in PMC6803849, “Biodistribution of Nanostructured Lipid Carriers in Mice Atherosclerotic Model” (Molecules, 2019).

Holding throughout (assay): MMP inhibition assay with fluorogenic substrate
Holding throughout (format): biochemical

One test addresses T1, hMMP-12 (Homo sapiens, UniProt P39900).
T1 construct: made in house
On the procedure: (§1) The binding capacity of the RXP470.1 ligand grafted on RXP-NLC surface was first assessed through an inhibition assay in the presence of a fluorogenic substrate. The affinity and selectivity profile of RXP-NLC was determined on a set of eight human MMPs and compared to the parent ligand.
(§2) Affinity and selectivity profile of RXP-NLC were determined toward a set of 8 human MMPs. Human MMP-8, -9, -12, and -13 were produced at CEA in Saclay according to a procedure previously reported. Other MMPs were purchased from R&D Systems (Minneapolis, MN, USA). MMP inhibition assays were carried out in 50 mM Tris-HCl buffer, pH = 6.8, 10 mM CaCl2 at 25 °C as previously described. Pro-MMPs were pre-activated by p-aminophenylmercuric acetate following the method described by R&D Systems. Titration experiments were carried out to determine the active enzyme concentration for each MMP prior to the assay. Continuous kinetic assays were performed by recording the fluorescence increase induced by the cleavage of fluorogenic substrates (Mca-Pro-Leu- Gly-Leu-Dpa-Ala-Arg-NH2 for MMP-1, -2, -7, -8, -9, -10, -12, -13, and -14 and Mca-Arg-Pro-Lys-Pro- Val-Glu- Nva-Trp-Arg-LysDNP-NH2 for MMP-3). A typical experiment was performed in 200 μL of Tris buffer containing 0.2–0.5 nM of MMP, and a 4.5 μM concentration of fluorogenic substrates. Black, flat-bottomed, 96-well non-binding surface plates (Corning-Costar, Schiphol-RijK, Netherlands) were used for these tests. Fluorescence signals were monitored using a Fluoroskan Ascent photon counter spectrophotometer (Thermo-Labsystems, Courtaboeuf, France) equipped with a temperature control device and a plate shaker. […] Ki values were determined using the method proposed by Horovitz and Leviski.

The next test addresses T2, hMMP-3 (Homo sapiens, UniProt P08254).
T2 construct: purchased R&D Systems
As to the method:
as §1, §2

Another test has as its target T3, hMMP-2 (Homo sapiens, UniProt P08253).
T3 construct: purchased R&D Systems
T3 sequence (P08253 110-660): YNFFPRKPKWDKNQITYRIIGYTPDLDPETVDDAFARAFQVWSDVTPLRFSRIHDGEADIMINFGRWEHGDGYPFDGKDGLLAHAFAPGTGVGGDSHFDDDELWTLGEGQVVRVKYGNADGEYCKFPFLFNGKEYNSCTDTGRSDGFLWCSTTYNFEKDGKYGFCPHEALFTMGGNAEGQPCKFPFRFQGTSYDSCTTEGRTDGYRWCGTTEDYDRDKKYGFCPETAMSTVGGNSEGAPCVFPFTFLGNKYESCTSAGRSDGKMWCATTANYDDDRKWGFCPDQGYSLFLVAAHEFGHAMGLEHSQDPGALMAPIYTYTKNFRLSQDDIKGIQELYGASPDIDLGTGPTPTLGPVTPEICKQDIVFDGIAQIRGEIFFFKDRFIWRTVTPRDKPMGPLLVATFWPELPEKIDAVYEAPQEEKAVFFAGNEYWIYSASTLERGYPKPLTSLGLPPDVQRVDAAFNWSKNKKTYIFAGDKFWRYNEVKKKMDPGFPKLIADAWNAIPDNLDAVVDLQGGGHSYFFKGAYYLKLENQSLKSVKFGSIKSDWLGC
As to the method: as §1, §2

In another test the target is T4, hMMP-10 (Homo sapiens, UniProt P09238).
T4 construct: purchased R&D Systems
T4 sequence (P09238 99-476): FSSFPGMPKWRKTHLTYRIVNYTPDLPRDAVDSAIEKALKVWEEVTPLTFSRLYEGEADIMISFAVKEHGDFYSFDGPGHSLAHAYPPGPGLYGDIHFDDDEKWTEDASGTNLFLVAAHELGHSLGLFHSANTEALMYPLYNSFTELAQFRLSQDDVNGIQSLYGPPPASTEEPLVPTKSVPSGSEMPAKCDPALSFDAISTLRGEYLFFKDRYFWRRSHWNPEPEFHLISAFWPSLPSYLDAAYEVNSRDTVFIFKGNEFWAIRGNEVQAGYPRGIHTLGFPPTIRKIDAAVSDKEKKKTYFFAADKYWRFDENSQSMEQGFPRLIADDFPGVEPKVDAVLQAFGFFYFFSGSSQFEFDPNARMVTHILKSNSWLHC
On the procedure:
as §1, §2

The target in another test is T5, hMMP-8 (Homo sapiens, UniProt P22894).
T5 construct: made in house
T5 sequence (P22894 101-467): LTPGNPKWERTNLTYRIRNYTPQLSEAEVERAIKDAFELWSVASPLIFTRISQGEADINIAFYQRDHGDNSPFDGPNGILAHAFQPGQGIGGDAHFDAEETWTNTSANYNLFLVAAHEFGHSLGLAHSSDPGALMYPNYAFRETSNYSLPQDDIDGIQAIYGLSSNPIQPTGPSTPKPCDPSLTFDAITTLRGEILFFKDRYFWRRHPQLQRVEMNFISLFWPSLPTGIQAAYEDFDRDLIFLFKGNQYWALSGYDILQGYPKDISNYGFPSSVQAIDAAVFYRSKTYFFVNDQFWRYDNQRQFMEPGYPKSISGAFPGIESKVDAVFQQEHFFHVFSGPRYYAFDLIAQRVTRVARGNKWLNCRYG
On the procedure:
as §1, §2

The target of another test is T6, hMMP-9 (Homo sapiens, UniProt P14780).
T6 construct: made in house
T6 sequence (P14780 94-707): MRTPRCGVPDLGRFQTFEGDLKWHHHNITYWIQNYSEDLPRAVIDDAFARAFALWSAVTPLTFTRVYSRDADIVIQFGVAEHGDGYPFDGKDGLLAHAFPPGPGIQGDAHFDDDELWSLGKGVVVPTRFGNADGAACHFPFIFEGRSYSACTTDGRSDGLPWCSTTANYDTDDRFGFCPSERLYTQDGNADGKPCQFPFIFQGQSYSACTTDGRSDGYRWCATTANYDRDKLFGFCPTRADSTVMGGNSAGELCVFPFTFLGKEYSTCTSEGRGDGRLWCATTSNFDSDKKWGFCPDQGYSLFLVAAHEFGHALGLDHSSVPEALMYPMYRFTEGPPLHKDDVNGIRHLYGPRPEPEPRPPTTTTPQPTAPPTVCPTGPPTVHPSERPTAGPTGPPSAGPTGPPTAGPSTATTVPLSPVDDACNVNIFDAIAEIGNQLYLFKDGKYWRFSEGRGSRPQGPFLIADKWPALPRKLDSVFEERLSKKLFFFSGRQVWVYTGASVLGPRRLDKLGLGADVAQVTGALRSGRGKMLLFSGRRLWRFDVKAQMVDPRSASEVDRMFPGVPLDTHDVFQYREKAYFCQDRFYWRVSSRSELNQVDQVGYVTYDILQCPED
On the procedure:
as §1, §2

In another test the target is T7, hMMP-14 (Homo sapiens, UniProt P50281).
T7 construct: purchased R&D Systems
As to the method: as §1, §2

Another test concerns the target T8, hMMP-13 (Homo sapiens, UniProt P45452).
T8 construct: made in house
As to the method:
as §1, §2

Molecules are shown by their SMILES.

T2 sequence (P08254 100-477): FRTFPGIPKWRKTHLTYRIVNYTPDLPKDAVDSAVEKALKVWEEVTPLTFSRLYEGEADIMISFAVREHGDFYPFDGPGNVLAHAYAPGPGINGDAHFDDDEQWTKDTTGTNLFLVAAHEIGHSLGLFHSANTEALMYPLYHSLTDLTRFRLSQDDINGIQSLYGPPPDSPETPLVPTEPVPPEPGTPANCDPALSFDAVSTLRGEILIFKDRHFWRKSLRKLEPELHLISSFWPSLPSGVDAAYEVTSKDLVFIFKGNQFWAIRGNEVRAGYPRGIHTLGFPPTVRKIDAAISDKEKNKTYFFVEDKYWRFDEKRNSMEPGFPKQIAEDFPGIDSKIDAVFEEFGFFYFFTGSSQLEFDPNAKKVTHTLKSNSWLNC
T1 sequence (P39900 106-470): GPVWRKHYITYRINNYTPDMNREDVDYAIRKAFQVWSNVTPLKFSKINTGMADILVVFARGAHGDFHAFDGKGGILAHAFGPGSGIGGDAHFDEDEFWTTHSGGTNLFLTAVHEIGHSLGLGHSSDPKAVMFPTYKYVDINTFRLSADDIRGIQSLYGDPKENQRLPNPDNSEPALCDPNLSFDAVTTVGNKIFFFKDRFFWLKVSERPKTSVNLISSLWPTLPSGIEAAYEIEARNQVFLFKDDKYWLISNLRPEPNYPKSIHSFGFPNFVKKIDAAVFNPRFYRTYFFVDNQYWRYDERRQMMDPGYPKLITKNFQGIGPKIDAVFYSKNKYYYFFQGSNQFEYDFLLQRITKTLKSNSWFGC

A word on the Ki: it is a dissociation constant, usually derived from enzyme kinetics or from competition with a known ligand. A high value points to lower affinity. As for `NC(=O)[C@H](CCC(=O)O)NC(=O)[C@H](CCC(=O)O)NC(=O)[C@H](Cc1cc(-c2ccc(-c3cccc(Cl)c3)cc2)no1)CP(=O)(O)c1ccc(Br)cc1` [RXP470.1], the Ki was 0.26 ± 0.05 nM on hMMP-12 (50 mM Tris-HCl buffer, pH 6.8, 10 mM CaCl2, 25 °C, mean ± SD of three independent experiments); 80 ± 2 nM on hMMP-3; 52 ± 4 nM at hMMP-2; 17 ± 2 nM at hMMP-10; 120 ± 40 nM at hMMP-8; 170 ± 50 nM on hMMP-9. For the same compound, the Ki at hMMP-14 is 150 ± 21 nM; on hMMP-13, 11 ± 1 nM. Further, the “Selectivity factor hMMP-12” value at hMMP-12 (relative to hMMP12) is 1. Further, on hMMP-3 (relative to hMMP12), the “Selectivity factor hMMP-3” value was 308. At hMMP-2 (relative to hMMP12), the “Selectivity factor hMMP-2” value was found to be 200. The “Selectivity factor hMMP-10” value at hMMP-10 (relative to hMMP12) was 65. On hMMP-8 (relative to hMMP12), the “Selectivity factor hMMP-8” value is on record as 462. Besides, the “Selectivity factor hMMP-9” value at hMMP-9 (relative to hMMP12) was 654. The “Selectivity factor hMMP-14” value on hMMP-14 (relative to hMMP12) is reported as 577. Besides, at hMMP-13 (relative to hMMP12), the “Selectivity factor hMMP-13” value is given as 42.
